Laboratory results taken from paper PMC6849653, “Volasertib preclinical activity in high-risk hepatoblastoma” (Oncotarget, 2019).
Structures can show the parent of a compound that is named as a salt.

Key:
[1] = cited from earlier work
normal human hepatocytes = test: 60-agent chemical screen, cell viability (Cell-Titer Glo), hepatocytes; format: cell-based; conditions: Hepatocyte, 60-agent screen, 72 hours, a value of 10,000 indicates that the drug did not inhibit viability, read-out: absolute IC50, Hepatocytes;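 further: cells were plated onto pre-diluted drug concentrations in 384-well plates, and viability was read after 72 h as CellTiter-Glo 2.0 luminescence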
Protocol: (§1) On day 0, cells were trypsinized and plated into a white walled 384-well plate containing pre-diluted known concentrations of various drugs. After 72 hours, an equal volume of Cell-Titer Glo 2.0 (G9243, Promega) was added to each well, incubated at room temperature while rocking in the dark for 15 minutes, followed by luminescence acquisition with a BioTek Synergy HT plate reader (BioTek, Winooski, VT).

HB-214 = test: 60-agent chemical screen, cell viability (Cell-Titer Glo), HB-214; format: cell-based; conditions: Homo sapiens; 60-agent screen, 72 hours; a value of 10,000 indicates that the drug did not inhibit viability; read-out: absolute IC50, HB-214;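 further: viability read as luminescence once Cell-Titer Glo 2.0 reagent was added to drug-treated cells in 384-well plates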
Protocol: as §1

Huh-6 = test: 60-agent chemical screen, cell viability (Cell-Titer Glo), Huh-6; format: cell-based; conditions: Homo sapiens, 60-agent screen, 72 hours, a value of 10,000 indicates that the drug did not inhibit viability, read-out: absolute IC50, Huh-6
Protocol: as §1

HepG2 = test: 60-agent chemical screen, cell viability (Cell-Titer Glo), HepG2; format: cell-based; conditions: Homo sapiens, 60-agent screen, 72 hours, a value of 10,000 indicates that the drug did not inhibit viability, read-out: absolute IC50, HepG2;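 further: luminescence read-out in 384-well plates, with cells plated directly onto drug dilutions of known concentration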
Protocol: as §1

[2] = tested on: hepatoblastoma cell lines HepG2, Huh-6 and HB-214 versus hepatocytes
Protocol: as §1

| Structure (SMILES) | known toxicity ([1]; in vivo) | IC50 (normal human hepatocytes) [µM] | IC50 (HB-214) [µM] | IC50 (Huh-6) [µM] | IC50 (HepG2) [µM] | Ratio normal/cancer: average ratio of the IC50 in hepatocytes to the IC50 in hepatoblastoma cell lines [2] | side effects ([1]; irinotecan) |
| --- | --- | --- | --- | --- | --- | --- | --- |
| C/C=C(/C)C(=O)O[C@H]1C(C)=C2[C@H]([C@@H]1OC(=O)CCCCCCC)[C@@](C)(OC(C)=O)C[C@H](OC(=O)CCC)[C@@]1(O)[C@H]2OC(=O)[C@@]1(C)O [thapsigargin] | significant renal toxicity | 0.519 | 0.16 | 0.28 | 0.021 |  |  |
| O=c1ncccn1[C@@H]1O[C@H](CO)[C@@H](O)[C@H]1O [zebularine] |  | > 10 | > 10 | > 10 | > 10 |  |  |
| CNC(=O)CN1CCC(Oc2cc3c(Nc4cccc(Cl)c4F)ncnc3cc2OC)CC1 [AZD8931] |  | 1.45 | > 10 | > 10 | > 10 |  |  |
| C[C@]1(O)C[C@@H](c2nc(-c3ccc4ccc(-c5ccccc5)nc4c3)c3c(N)nccn32)C1 [OSI-906] |  | 5.9 | 1.8 | > 10 | > 10 |  |  |
| N#CC[C@H](C1CCCC1)n1cc(-c2ncnc3[nH]ccc23)cn1 [ruxolitinib] |  | > 10 | > 10 | > 10 | > 10 |  |  |
| CC(=O)c1c(C)c2cnc(Nc3ccc(N4CCNCC4)cn3)nc2n(C2CCCC2)c1=O [PD 0332991] |  | > 10 | 1.89 | > 10 | 6.07 |  |  |
| Nc1ccccc1NC(=O)c1ccc(CNC(=O)OCc2cccnc2)cc1 [entinostat] |  | 0.217 | 1.49 | > 10 | 0.392 |  |  |
| Clc1ccc(N/N=C(\c2ccccc2)c2ccccn2)nc1 [JIB-04] |  |  |  |  |  | 4 |  |
| Nc1nc(O)c2ncn(COC(CO)CO)c2n1 [ganciclovir] |  | > 10 | > 10 | > 10 | > 10 |  |  |
| Cc1cc(-c2ncc(CC(=O)Nc3ccc(-c4cnccn4)cn3)cc2C)ccn1 [LGK974] |  | 7.72 | > 10 | > 10 | > 10 |  |  |
| CN(C)C(=N)N=C(N)N [metformin HCL] |  | > 10 | > 10 | > 10 | > 10 |  |  |
| COc1cccc(OCCCN)c1-c1cc(Nc2cnc(C#N)cn2)n[nH]1 [LY2606368] |  | > 10 | 4.7 | 5.27 | 5.4 |  |  |
| CN1CCc2c(c3ccccc3n2Cc2ccc(C(=O)NO)cc2)C1 [tubastatin A] |  | > 10 | > 10 | > 10 | > 10 |  |  |
| CN(C(=O)c1ccc(F)cc1C(F)(F)F)C1CCN(c2nnc(-c3ccnn3C)c3ccccc23)CC1 [LY2940680] |  | > 10 | > 10 | > 10 | > 10 |  |  |
| CS(=O)(=O)c1cccc(CNc2nc(Nc3ccc4c(c3)CCC(=O)N4)ncc2C(F)(F)F)c1 [PF 573228] |  |  |  |  |  | 1 |  |
| Cc1ccc(Nc2nccc(N(C)c3ccc4c(C)n(C)nc4c3)n2)cc1S(N)(=O)=O [pazopanib] |  |  | > 10 | > 10 | > 10 |  |  |
| CO[C@H]1C[C@@H]2CC[C@@H](C)[C@@](O)(O2)C(=O)C(=O)N2CCCC[C@H]2C(=O)O[C@H]([C@H](C)C[C@@H]2CC[C@@H](O)[C@H](OC)C2)CC(=O)[C@H](C)/C=C(\C)[C@@H](O)[C@@H](OC)C(=O)[C@H](C)C[C@H](C)/C=C/C=C/C=C/1C [sirolimus] |  | > 10 | > 10 | > 10 | > 10 |  |  |
| CC(C)n1c(/C=C/C(O)CC(O)CC(=O)O)c(-c2ccc(F)cc2)c2ccccc21 (stereo not drawn) [fluvastatin] |  |  | > 10 | 4.44 | > 10 |  |  |
| CCOc1cc(C(C)(C)C)ccc1C1=N[C@@](C)(c2ccc(Cl)cc2)[C@@](C)(c2ccc(Cl)cc2)N1C(=O)N1CCN(CCCS(C)(=O)=O)CC1 [RO5045337] |  | > 10 | 4.15 | > 10 | > 10 |  |  |
| CCCc1c(OCCCOc2cc(O)c(-c3ccc(F)cc3)cc2CC)cccc1Oc1ccccc1C(=O)O [LY293111] |  | > 10 | > 10 | > 10 | > 10 |  |  |
| COc1cc2nc(N3CCCN(C)CC3)nc(NC3CCN(Cc4ccccc4)CC3)c2cc1OC [BIX 01294] |  | 2.04 | 1.72 | 2.81 | 2.9 |  |  |
| C=C[C@@]1(C)CC(=O)[C@]2(O)[C@@]3(C)[C@@H](O)CCC(C)(C)[C@@H]3[C@H](O)[C@H](OC(C)=O)[C@@]2(C)O1 [forskolin] |  | > 10 | > 10 | > 10 | > 10 |  |  |
| CCc1cnn2c(NCc3ccc[n+]([O-])c3)cc(N3CCCC[C@H]3CCO)nc12 [dinaciclib] |  | 0.001 |  |  |  |  |  |

| Structure (SMILES) | known toxicity ([1]; in vivo) | IC50 (normal human hepatocytes) [µM] | IC50 (HB-214) [µM] | IC50 (Huh-6) [µM] | IC50 (HepG2) [µM] | Ratio normal/cancer: average ratio of the IC50 in hepatocytes to the IC50 in hepatoblastoma cell lines [2] | side effects ([1]; irinotecan) |
| --- | --- | --- | --- | --- | --- | --- | --- |
| Cc1ccc(-c2cc(C(F)(F)F)nn2-c2ccc(S(N)(=O)=O)cc2)cc1 [celecoxib] |  | > 10 | > 10 | > 10 | > 10 |  |  |
| Cc1nc(Nc2ncc(C(=O)Nc3c(C)cccc3Cl)s2)cc(N2CCN(CCO)CC2)n1 [dasatinib] |  | > 10 | > 10 | 2.62 | 5.02 |  |  |
| Cn1c(=O)n(-c2ccc(C(C)(C)C#N)cc2)c2c3cc(-c4cnc5ccccc5c4)ccc3ncc21 [BEZ235] |  | 0.048 | 0.61 | > 10 | 0.478 |  |  |
| CN1CCC(CNc2ccc3ncc(-c4cccc(OC(F)(F)F)c4)n3n2)CC1 [SGI-1776] |  | 0.233 | 1.53 | 4.62 | 1.72 |  |  |
| CC(C)N(CCCNC(=O)Nc1ccc(C(C)(C)C)cc1)C[C@H]1O[C@@H](n2cc(Br)c3c(N)ncnc32)[C@H](O)[C@@H]1O [SGC0946] |  | 0.51 | > 10 | 1.56 | 6.39 |  |  |
| CN[C@@H](C)C(=O)N[C@H](C(=O)N1CCC[C@H]1c1nc(C(=O)c2ccc(F)cc2)cs1)C1CCCCC1 [LCL161] |  | > 10 | > 10 | > 10 | > 10 |  |  |
| CCOC(=O)CCNc1cc(N2CCc3ccccc3CC2)nc(-c2ccccn2)n1 [GSK-J4 HCl] |  | > 10 | > 10 | 4.8 | > 10 |  |  |
| O=C(O)c1ccc2c(c1)nc(Nc1cccc(Cl)c1)c1ccncc12 [CX-4945] |  | > 10 | > 10 | 4.81 | 6.2 |  |  |
| Cc1ccc(S(=O)(=O)/C=C/C#N)cc1 [BAY-11-7082] |  |  |  |  |  | 1 |  |
| Cc1cc(Nc2cc(N3CCN(C)CC3)nc(Sc3ccc(NC(=O)C4CC4)cc3)n2)[nH]n1 [tozasertib] |  | > 10 | 1.48 | 3.26 | > 10 |  |  |
| Cc1[nH]c2ccccc2c1CCNCc1ccc(/C=C/C(=O)NO)cc1 [panobinostat] |  | 0.039 | 0.25 | 1.14 | 0.08 |  |  |
| CC1(C)CCC(c2ccc(Cl)cc2)=C(CN2CCN(c3ccc(C(=O)NS(=O)(=O)c4ccc(N[C@H](CCN5CCOCC5)CSc5ccccc5)c(S(=O)(=O)C(F)(F)F)c4)cc3)CC2)C1 [ABT-263] |  | > 10 | > 10 | > 10 | > 10 |  |  |
| C[C@@H](Oc1cc(-c2cnn(C3CCNCC3)c2)cnc1N)c1c(Cl)ccc(F)c1Cl [crizotinib] |  | 2.16 | 7.64 | 4.42 | 2.17 |  |  |
| CC(C)(C(=O)NCC(F)(F)C(F)(F)F)C(=O)N[C@@H]1C(=O)Nc2ccccc2-c2ccccc21 [RO4929097] |  | > 10 | > 10 | > 10 | > 10 |  |  |
| COCCn1c2c([n+](Cc3cnccn3)c1C)C(=O)c1ccccc1C2=O [YM155] |  | 0.034 | 0.26 | 4.47 | 0.124 |  |  |
| O=C1NC(=O)C(c2cnc3ccccn23)=C1c1cn2c3c(cc(F)cc13)CN(C(=O)N1CCCCC1)CC2 [LY2090314] |  | 0.837 | > 10 | > 10 | > 10 |  |  |
| COc1ccc(C[C@@H](C)[C@@H](C)Cc2ccc(OC)c(OC)c2)cc1OC [EM1421] |  | > 10 | > 10 | > 10 | > 10 |  |  |
| CCc1c2c(nc3ccc(OC(=O)N4CCC(N5CCCCC5)CC4)cc13)-c1cc3c(c(=O)n1C2)COC(=O)[C@]3(O)CC [irinotecan] |  |  |  |  |  |  | diarrhea and neutropenia |
| C[C@@H](Oc1ccc2[nH]nc(/C=C/c3cnn(CCO)c3)c2c1)c1c(Cl)cncc1Cl [LY2874455] |  | 2.17 | > 10 | > 10 | > 10 |  |  |
| CC(C)(C)Cn1c(N)nc2ccc(-c3[nH]c(C(C)(C)C)nc3-c3ccc(F)cc3)nc21 [LY2228820] |  | 0.076 | > 10 | > 10 | > 10 |  |  |
| C=CCn1c(=O)c2cnc(Nc3ccc(N4CCN(C)CC4)cc3)nc2n1-c1cccc(C(C)(C)O)n1 [MK-1775] |  | > 10 | 1.18 | > 10 | > 10 |  |  |
| CC(C)n1nc(-c2ccc3oc(N)nc3c2)c2c(N)ncnc21 [INK 128] |  | 0.007 | 0.001 | 2.43 | 0.126 |  |  |
| Nc1nc2[nH]cc(CCc3ccc(C(=O)N[C@@H](CCC(=O)O)C(=O)O)cc3)c2c(=O)[nH]1 [pemetrexed] |  | > 10 | > 10 | > 10 | > 10 |  |  |
